pIC50: −log10 of the molar value.
Key:
Assay in all cases: KAM-matrix competition in K562 lysate;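 for 0.001 uM KAM: median log10 fold change of treatment over DMSO control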;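 for 0.1 uM KAM: median log10 fold change of treatment over DMSO control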;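 for 1 uM KAM: median log10 fold change of treatment over DMSO control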;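 for 10 uM KAM: median log10 fold change of treatment over DMSO control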
Type in all cases: binding
RPS6KC1 = target: T1, RPS6KC1 (Homo sapiens, UniProt Q96S38);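 for 0.001 uM KAM: median log10 fold change of treatment over DMSO control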;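 for 0.1 uM KAM: median log10 fold change of treatment over DMSO control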;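 for 1 uM KAM: median log10 fold change of treatment over DMSO control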;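 for 10 uM KAM: median log10 fold change of treatment over DMSO control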
T1 construct: endogenous in cells; host or cells: K562 cell lysate
T1 sequence (Q96S38 1-1066): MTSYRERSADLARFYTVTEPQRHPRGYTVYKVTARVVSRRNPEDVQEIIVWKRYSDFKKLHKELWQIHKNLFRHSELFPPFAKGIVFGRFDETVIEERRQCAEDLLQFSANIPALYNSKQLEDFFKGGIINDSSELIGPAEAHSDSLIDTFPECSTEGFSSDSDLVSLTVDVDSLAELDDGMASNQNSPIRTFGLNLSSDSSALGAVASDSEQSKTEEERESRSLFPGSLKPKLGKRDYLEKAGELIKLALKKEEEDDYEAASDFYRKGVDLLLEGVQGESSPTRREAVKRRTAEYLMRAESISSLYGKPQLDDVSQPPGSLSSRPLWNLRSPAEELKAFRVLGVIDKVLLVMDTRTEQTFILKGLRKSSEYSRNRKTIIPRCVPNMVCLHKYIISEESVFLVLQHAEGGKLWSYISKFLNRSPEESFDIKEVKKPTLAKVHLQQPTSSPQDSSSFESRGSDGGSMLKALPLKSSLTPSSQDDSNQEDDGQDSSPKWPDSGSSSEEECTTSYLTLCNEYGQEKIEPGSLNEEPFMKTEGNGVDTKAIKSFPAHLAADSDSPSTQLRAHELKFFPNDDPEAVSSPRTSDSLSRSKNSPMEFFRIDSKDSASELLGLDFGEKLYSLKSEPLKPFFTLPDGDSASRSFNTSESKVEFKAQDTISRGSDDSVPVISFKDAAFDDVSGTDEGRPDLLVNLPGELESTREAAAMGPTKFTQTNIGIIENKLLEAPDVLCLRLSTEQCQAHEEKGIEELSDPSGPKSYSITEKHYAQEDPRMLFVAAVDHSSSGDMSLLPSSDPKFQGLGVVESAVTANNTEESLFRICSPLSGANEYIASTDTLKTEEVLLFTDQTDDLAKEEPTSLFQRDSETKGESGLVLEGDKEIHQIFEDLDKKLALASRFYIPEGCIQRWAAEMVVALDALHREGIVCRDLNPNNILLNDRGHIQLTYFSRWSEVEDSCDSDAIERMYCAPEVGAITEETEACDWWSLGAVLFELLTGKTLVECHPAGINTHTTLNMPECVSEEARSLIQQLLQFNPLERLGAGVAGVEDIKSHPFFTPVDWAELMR
Procedure: Supplement 12953_2017_125_MOESM1_ESM.zip/MS_Supp Info.xlsx, sheet "KAM" | column: 10 uM KAM; 1 uM KAM; 0.1 uM KAM; 0.001 uM KAM; RB50

AAK1 = target: T2, AAK1 (Homo sapiens, UniProt Q2M2I8)
T2 construct: endogenous in cells; host or cells: K562
T2 sequence (Q2M2I8 whole entry): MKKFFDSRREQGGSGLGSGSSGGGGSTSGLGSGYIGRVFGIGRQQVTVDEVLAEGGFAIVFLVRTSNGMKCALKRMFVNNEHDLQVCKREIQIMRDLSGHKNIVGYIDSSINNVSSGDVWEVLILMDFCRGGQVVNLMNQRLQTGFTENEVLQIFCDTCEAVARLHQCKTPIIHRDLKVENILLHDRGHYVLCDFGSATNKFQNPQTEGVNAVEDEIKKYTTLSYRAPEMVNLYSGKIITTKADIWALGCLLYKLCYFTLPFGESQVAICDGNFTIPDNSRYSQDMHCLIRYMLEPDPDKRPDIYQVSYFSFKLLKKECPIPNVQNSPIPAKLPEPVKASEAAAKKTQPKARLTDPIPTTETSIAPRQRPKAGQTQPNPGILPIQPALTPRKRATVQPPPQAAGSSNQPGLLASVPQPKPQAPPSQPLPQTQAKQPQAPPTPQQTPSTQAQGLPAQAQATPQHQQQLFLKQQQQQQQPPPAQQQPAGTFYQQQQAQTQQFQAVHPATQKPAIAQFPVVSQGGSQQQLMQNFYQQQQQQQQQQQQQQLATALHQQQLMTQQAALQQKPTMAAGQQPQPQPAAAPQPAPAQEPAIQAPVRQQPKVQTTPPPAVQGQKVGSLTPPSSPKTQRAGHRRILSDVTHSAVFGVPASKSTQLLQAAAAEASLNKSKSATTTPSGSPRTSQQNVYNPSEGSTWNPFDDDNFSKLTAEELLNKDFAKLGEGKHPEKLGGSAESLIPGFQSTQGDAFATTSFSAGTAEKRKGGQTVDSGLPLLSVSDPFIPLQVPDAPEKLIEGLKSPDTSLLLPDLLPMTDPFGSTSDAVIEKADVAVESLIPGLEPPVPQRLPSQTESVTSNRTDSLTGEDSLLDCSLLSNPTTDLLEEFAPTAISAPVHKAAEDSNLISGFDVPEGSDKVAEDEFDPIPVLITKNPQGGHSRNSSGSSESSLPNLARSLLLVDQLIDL
Procedure: (§1) For synthesis of KAM-derivatized resin, packed NHS-activated sepharose 4 fast flow resin (volume = 2 mL; GE Healthcare) was washed with anhydrous DMSO (3 × 10 mL). To the washed NHS-activated sepharose resin was added 0.5 mM KAM in anhydrous DMSO (8 mL; 2 μmol compound/mL of resin), followed by the addition of triethylamine (30 μL). The reaction mixture was vortexed to mix and pelleted by centrifugation (100 x g, 2 min). An aliquot of the supernatant (50 μL) was saved for LC/MS analysis. The reaction mixture was allowed incubate overnight at room temp with end-over-end rotating agitation. On the following day, the reaction mixture was pelleted by centrifugation (100 x g, 2 min). An aliquot of the supernatant (50 μL) was saved for LC/MS analysis. […] 2-(2-Aminoethoxy)ethanol (100 μL; Sigma-Aldrich) was added to the reaction mixture, vortexed, and incubate overnight at room temp with end-over-end agitation. The KAM-derivatized resin was then washed with anhydrous DMSO (3 × 10 mL) and 95% EtOH (3 × 10 mL).
(§2) Data were visualized for further analysis using Spotfire DXP.

CDK9 = target: T3, CDK9 (Homo sapiens, UniProt P50750)
T3 construct: endogenous in cells; host or cells: K562
T3 sequence (P50750 whole entry): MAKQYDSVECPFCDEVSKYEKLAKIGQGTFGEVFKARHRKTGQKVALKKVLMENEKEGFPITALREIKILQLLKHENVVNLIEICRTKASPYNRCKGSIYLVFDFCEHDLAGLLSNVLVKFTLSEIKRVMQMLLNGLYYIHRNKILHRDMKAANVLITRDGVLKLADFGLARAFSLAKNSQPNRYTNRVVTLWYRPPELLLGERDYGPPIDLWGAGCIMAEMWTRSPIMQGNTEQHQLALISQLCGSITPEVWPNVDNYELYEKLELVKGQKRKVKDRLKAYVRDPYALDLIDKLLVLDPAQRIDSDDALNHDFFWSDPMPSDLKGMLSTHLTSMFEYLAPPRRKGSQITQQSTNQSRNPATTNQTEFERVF
T3 sequence (O60563 whole entry partner): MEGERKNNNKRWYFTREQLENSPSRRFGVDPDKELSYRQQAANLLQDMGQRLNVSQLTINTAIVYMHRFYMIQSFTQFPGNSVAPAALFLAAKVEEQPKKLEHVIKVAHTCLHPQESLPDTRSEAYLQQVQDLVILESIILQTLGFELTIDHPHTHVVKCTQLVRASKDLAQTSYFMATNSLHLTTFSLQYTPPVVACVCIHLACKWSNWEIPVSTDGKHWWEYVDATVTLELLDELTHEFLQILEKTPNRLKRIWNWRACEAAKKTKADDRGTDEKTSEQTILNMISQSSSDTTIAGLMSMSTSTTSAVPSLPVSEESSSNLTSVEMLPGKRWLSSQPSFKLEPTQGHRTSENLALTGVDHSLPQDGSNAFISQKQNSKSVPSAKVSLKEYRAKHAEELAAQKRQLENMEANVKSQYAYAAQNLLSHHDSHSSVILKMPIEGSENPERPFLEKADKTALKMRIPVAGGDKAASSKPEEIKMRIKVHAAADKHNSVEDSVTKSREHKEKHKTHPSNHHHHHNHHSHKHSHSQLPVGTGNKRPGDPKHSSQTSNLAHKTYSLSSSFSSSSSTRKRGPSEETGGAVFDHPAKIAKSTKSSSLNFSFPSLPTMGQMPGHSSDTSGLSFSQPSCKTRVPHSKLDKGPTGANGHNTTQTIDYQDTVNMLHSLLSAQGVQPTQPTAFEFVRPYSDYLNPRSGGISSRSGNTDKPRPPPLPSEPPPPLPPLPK
Procedure: as §1, §2

GSK3B = target: T4, GSK3B (Homo sapiens, UniProt P49841)
T4 construct: endogenous in cells; host or cells: K562
T4 sequence (P49841 whole entry): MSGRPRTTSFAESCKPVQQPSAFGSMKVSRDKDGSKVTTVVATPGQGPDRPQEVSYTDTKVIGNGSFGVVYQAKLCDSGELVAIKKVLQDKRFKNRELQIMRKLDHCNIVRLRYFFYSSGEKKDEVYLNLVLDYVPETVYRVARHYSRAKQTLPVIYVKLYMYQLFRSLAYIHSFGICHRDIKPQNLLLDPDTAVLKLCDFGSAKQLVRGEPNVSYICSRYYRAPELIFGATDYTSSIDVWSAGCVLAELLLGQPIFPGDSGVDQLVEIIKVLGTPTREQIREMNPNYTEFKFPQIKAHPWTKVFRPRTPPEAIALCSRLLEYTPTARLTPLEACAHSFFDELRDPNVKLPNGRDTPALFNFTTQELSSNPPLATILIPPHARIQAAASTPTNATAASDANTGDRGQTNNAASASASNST
Procedure: as §1, §2

SMILES: N#CCc1ccc(Nc2nc(NCCCN)cc(Nc3cc(C4CC4)[nH]n3)n2)cc1 [KAM]
- pIC50 (RPS6KC1; KAM 0.001-10 uM, read-out: RB50 (the source's name)): < 5.00
- 0.001 uM KAM (RPS6KC1; relative to 0 uM KAM = 0): -0.005381
- 0.1 uM KAM (RPS6KC1; relative to 0 uM KAM = 0): -0.07914
- 1 uM KAM (RPS6KC1; relative to 0 uM KAM = 0): -0.09953
- 10 uM KAM (RPS6KC1; relative to 0 uM KAM = 0): -0.2964
- median Log10 fold change (AAK1; 0.001 uM KAM): -0.03432
- median Log10 fold change (AAK1; 0.01 uM KAM): -0.41
- median Log10 fold change (AAK1; 0.1 uM KAM): -0.6175
- median Log10 fold change (AAK1; 1 uM KAM): -0.6778
- median Log10 fold change (AAK1; 10 uM KAM): -0.7219
- pIC50 (AAK1; AAK1, KAM-based affinity matrix, K562 lysates, read-out: RB50 (the source's name)): 8.10
- median Log10 fold change (CDK9; 0.001 uM KAM): -0.01348
- median Log10 fold change (CDK9; 0.01 uM KAM): -0.02502
- median Log10 fold change (CDK9; 0.1 uM KAM): -0.3345
- median Log10 fold change (CDK9; 1 uM KAM): -0.6226
- median Log10 fold change (CDK9; 10 uM KAM): -0.7136
- pIC50 (CDK9; CDK9, KAM-based affinity matrix, K562 lysates, read-out: RB50 (the source's name)): 6.95
- median Log10 fold change (GSK3B; 0.001 uM KAM): 0.01354
- median Log10 fold change (GSK3B; 0.01 uM KAM): -0.16
- median Log10 fold change (GSK3B; 0.1 uM KAM): -0.4584
- median Log10 fold change (GSK3B; 1 uM KAM): -0.606
- median Log10 fold change (GSK3B; 10 uM KAM): -0.568
- pIC50 (GSK3B; GSK3B, KAM-based affinity matrix, K562 lysates, read-out: RB50 (the source's name)): 7.35
